Article PMC7162492, “Pharmacological and pharmacokinetic profile of the novel ocular hypotensive prodrug CKLP1 in Dutch-belted pigmented rabbits” (PLoS ONE, 2020)
“And” between values parts separate entries of the source, which are not always exact repeats. Identical values can stand only once. “Also recorded” adds a separate entry of the source.

Assays:
[1] = Concentration in aqueous and vitreous humor after topical CKLP1 for 1, 4 or 8 days (LC-MS/MS); format: in vivo, Dutch-belted pigmented rabbits; conditions: topical CKLP1 both eyes, days 1, 4 and 8, collected after the 24 h blood sample
Experimental: (§1) LC-MS/MS analysis of all fluids were performed using a Waters (Milford, MA) Acquity UPLC BEH C18 column (1.7 μm, 2.1 x 50 mm) with an Agilent EC-C18 pre-column (2.7 μm, 2.1 x 5 mm) and a gradient elution program containing ultra-pure water and acetonitrile with 2.5 mM ammonium formate, at a flow rate of 0.2 ml/min. Flavopiridol was used as an internal standard. The column and auto-sampler temperatures were maintained at 40°C and 4°C, respectively. Source parameters were capillary voltage, 2.6 kV; source temperature, 150°C; desolvation temperature, 500°C; cone gas flow, 150 L/h; and desolvation gas flow, 800 L/h. The cone voltages and collision energies for CKLP1, levcromakalim and flavopiridol were determined by MassLynx-Intellistart software, v4.1, and were 32, 34 and 72 V (cone) and 20, 14 and 30 eV (collision), respectively. The retention times were 4.5 minutes for CKLP1, 5.9 minutes for levcromakalim and 5.7 minutes for flavopiridol.
(§2) To validate accurate measurement of CKLP1 and levcromakalim, known concentrations of CKLP1 (5, 10, 25, 50, 100, 250, 500 ng/ml) and levcromakalim (1, 5, 10, 25, 50, 100, 250 ng/ml) were added to human plasma (obtained from the Mayo Clinic Division of Transfusion Medicine under an Institutional Review Board approved protocol) to make calibration curves. Quality control was determined for each run by using known quantities of CKLP1 and levcromakalim to verify that the instrument recorded values consistent with the established standard curve. The effect of carryover was evaluated by injecting blank samples before and after running the standard samples for calibration curves. Unknown samples with signal to noise ratios >10 were recorded as acceptable concentrations. Samples with signal to noise ratios <10 were reported as not detectable (ND). Controls consisted of a double blank (without analytes and internal standard) and a single blank (only internal standard). The linearity of the calibration curves was determined by plotting the ratios of analytes to internal standard peak areas. The curve was fitted by least squares regression with a 1/x weighting for both CKLP1 and levcromakalim. Data was collected from 3–6.4 minutes for CKLP1 and 4–8 minutes for both levcromakalim and flavopiridol. Waters MassLynx Intellistart software v4.1 was used for analysis.
(§3) All experiments with animals were pre-approved by the Institutional Animal Care and Use Committee of the Mayo Clinic, Rochester, MN and adhered to the recommendations in the Guide for the Care and use of Laboratory Animals of the National Institutes of Health, and the tenets of the ARVO Statement for the Use of Animals in Vision Research. Female Dutch-belted pigmented rabbits (age 7 months) were obtained from Covance Research Products, Inc. (Denver, PA). Rabbits were housed in pairs and kept in a climate controlled room with 12 h light and dark cycles. Animals had unrestrained access to water and standard rabbit food pellets at all times. Upon receipt, animals were acclimated for at least 5 days before initiation of the experiment. IOP was measured with a handheld rebound tonometer (Icare Tonovet, Colonial Medical Supply, Franconia, NH, USA) in conscious and minimally restrained, non-anesthetized rabbits as previously described. Briefly, daily IOP was calculated from the average of 3 independent IOP measurements at 3 different time points each day. These time points corresponded to 1 h, 4 h and 23 h post treatment on any given day. Rabbits that needed to be handled for IOP were subjected to sham IOP measurements for two days prior to initiation of experiment. Rabbits (n = 3) were injected intravenously through the right ear vein with CKLP1 as a bolus dose equal to 0.25 mg/kg body weight. Additional rabbits were treated topically through instillation of 50 μl eye drops of a 10 mM (4.1 mg/ml) solution of CKLP1 in sterile PBS. […]

[2] = Tissue and fluid distribution after 90 days of daily topical CKLP1 (LC-MS/MS); format: in vivo, Dutch-belted pigmented rabbits; conditions: topical eye drops 10 mM CKLP1, 90 consecutive days
Experimental: as §1, §2, §3

[3] = test system: IOP in Dutch-belted pigmented rabbits; test: IOP measurement by rebound tonometer during 90 days of topical CKLP1; format: in vivo
Source text: All experiments with animals were pre-approved by the Institutional Animal Care and Use Committee of the Mayo Clinic, Rochester, MN and adhered to the recommendations in the Guide for the Care and use of Laboratory Animals of the National Institutes of Health, and the tenets of the ARVO Statement for the Use of Animals in Vision Research. Female Dutch-belted pigmented rabbits (age 7 months) were obtained from Covance Research Products, Inc. (Denver, PA). Rabbits were housed in pairs and kept in a climate controlled room with 12 h light and dark cycles. Animals had unrestrained access to water and standard rabbit food pellets at all times. Upon receipt, animals were acclimated for at least 5 days before initiation of the experiment. IOP was measured with a handheld rebound tonometer (Icare Tonovet, Colonial Medical Supply, Franconia, NH, USA) in conscious and minimally restrained, non-anesthetized rabbits as previously described. Briefly, daily IOP was calculated from the average of 3 independent IOP measurements at 3 different time points each day. These time points corresponded to 1 h, 4 h and 23 h post treatment on any given day. Rabbits that needed to be handled for IOP were subjected to sham IOP measurements for two days prior to initiation of experiment. Rabbits (n = 3) were injected intravenously through the right ear vein with CKLP1 as a bolus dose equal to 0.25 mg/kg body weight. Additional rabbits were treated topically through instillation of 50 μl eye drops of a 10 mM (4.1 mg/ml) solution of CKLP1 in sterile PBS. Topical CKLP1 application was continued once daily (9:30 am every day) for either 1 (n = 3), 4 (n = 3), 8 (n = 3) or 90 days (n = 6). In the 1, 4 and 8 day groups, drug was added to both eyes, whereas in the 90 day group, CKLP1 was added to one eye while the contralateral eye received vehicle (PBS, Corning, Manassas, VA).
IOP values are represented as mean ± standard deviation. IOP differences between treated and control eyes were compared using two-tailed paired Student’s t-test. Pharmacokinetic parameters (Cmax, Tmax, AUC and concentration of CKLP1 and levcromakalim) across various days following treatment were compared with one-way ANOVA. Criterion for statistically significant difference of means was set at p<0.05. Statistical analyses were performed using Microsoft Excel and its data analysis add-on feature.

[4] = test system: Dutch-belted pigmented rabbits; test: Tolerability observation during topical CKLP1 treatment for 1, 4 or 8 days; format: in vivo; conditions: topical CKLP1 both eyes for 1, 4 or 8 days
Source text: as §3, with “experiment.” for “experiment. Rabbits (n = 3) were injected intravenously through the right ear vein with CKLP1 as a bolus dose equal to 0.25 mg/kg body weight. Additional rabbits were treated topically through instillation of 50 μl eye drops of a 10 mM (4.1 mg/ml) solution of CKLP1 in sterile PBS.”

[5] = test system: phosphatases; test: In vitro cleavage of CKLP1 by phosphatases (unpublished data); format: in vitro ADME
[6] = design: method as in earlier work; conditions: ref Roy Chowdhury U, Viker KB, Stoltz KL, et al. J Med Chem. 2016;59(13):6221-31; cited from earlier work
[7] = 10 mM CKLP1 eye drop daily, 90 days

With “sodium [CKLP1, sodium [(3S,4R)-6-cyano-2,2-dimethyl-4-(2-oxopyrrolidin-1-yl)-chroman-3-yl phosphate]]” the “Concentration in aqueous humor” value [1] was “No CKLP1 was detected; also recorded: below detectable limits”, the “Concentration in vitreous humor” value [1] was “No CKLP1 was detected; also recorded: below detectable limits” and the “Concentration in Brain” value [2] was “not detected”. For the same substance, the “Concentration in Heart” value [2] was “not detected”, the “Concentration in Kidney” value [2] was 15.8 ±1.8 ng/g and 15.8 ± 1.8 (n = 6/6) ng/g and the “Concentration in Muscle” value [2] was “not detected”. The “Concentration in Plasma” value [2] was “no detectable levels”, the “Concentration in aqueous humor” value [2] was “undetectable” and the “Concentration in vitreous humor” value [2] was “undetectable”. For the same substance, the “IOP drop in the treated eye compared to baseline” value [3, 7] was 11.4 ± 4.7% and 11.4%, the “IOP reduction in treated eye compared to contralateral vehicle treated eye” value [3, 7] was 14.1 ± 1.0% and the “IOP absolute change in treated eyes compared to control eyes” value ([3]; 10 mM CKLP1 eye drop daily, 90 days, n = 6) was 2.4 ± 0.4 mmHg. The “IOP in the treated eye” value ([3]; 10 mM CKLP1 eye drop daily, 90 days, baseline 16.5 ± 0.7) was 14.6 ± 1.0 mm Hg, the “Average IOP in treated eyes post treatment (washout group)” value ([3]; after cessation of 90-day treatment, n = 3, baseline 16.5 ± 0.7) was 15.6 ± 0.6 mm Hg and the “Tolerability, visible signs of toxicity or discomfort” value [4] was “no visible signs of toxicity or discomfort”. For the same substance, the “Cleavage by phosphatases to cromakalim in vitro” value [5] was “never completely cleaved” and the Solubility in water [6] was “water soluble”.
